The supplement of paper PMC10307832

What was measured:
Test in all cases: relative viability (nuclei count vs DMSO), 5 days (fraction); higher = more cells survive
Neratinib + Pemetrexed = compound: CCOc1cc2ncc(C#N)c(Nc3ccc(OCc4ccccn4)c(Cl)c3)c2cc1NC(=O)/C=C/CN(C)C [Neratinib] + Nc1nc2[nH]cc(CCc3ccc(C(=O)N[C@@H](CCC(=O)O)C(=O)O)cc3)c2c(=O)[nH]1 [Pemetrexed] (partner 0.2 µM)
In short: (§1)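 The day after seeding in 1536-well plates, lung cancer cell lines were treated by pin tool with a single drug, or with a fixed anchor-drug dose together with five library-drug doses (not always all listed) in √10 steps. After 5 days, a combined fix-and-stain solution (final 0.05% Triton X-100, 1% formaldehyde, 1 ug/ml Hoechst) was added. Nuclei counted on 4× images gave relative viability as treated counts over vehicle counts, reported as the median of duplicate plates.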

Neratinib + AZD7762 = compound: CCOc1cc2ncc(C#N)c(Nc3ccc(OCc4ccccn4)c(Cl)c3)c2cc1NC(=O)/C=C/CN(C)C [Neratinib] + NC(=O)Nc1cc(-c2cccc(F)c2)sc1C(=O)N[C@H]1CCCNC1 [AZD7762] (partner 0.2 µM)
In short: as §1

Neratinib + OSI-027 = compound: CCOc1cc2ncc(C#N)c(Nc3ccc(OCc4ccccn4)c(Cl)c3)c2cc1NC(=O)/C=C/CN(C)C [Neratinib] + COc1cccc2cc(-c3nc([C@H]4CC[C@H](C(=O)O)CC4)n4ncnc(N)c34)[nH]c12 [OSI-027] (partner 0.5 µM)
In short: as §1

Neratinib + Foretinib = compound: CCOc1cc2ncc(C#N)c(Nc3ccc(OCc4ccccn4)c(Cl)c3)c2cc1NC(=O)/C=C/CN(C)C [Neratinib] + COc1cc2c(Oc3ccc(NC(=O)C4(C(=O)Nc5ccc(F)cc5)CC4)cc3F)ccnc2cc1OCCCN1CCOCC1 [Foretinib] (partner 0.25 µM)
In short: as §1

Cell Line | relative viability (Neratinib + Pemetrexed; first compound 0.01 µM) | relative viability (Neratinib + Pemetrexed; first compound 0.03162 µM) | relative viability (Neratinib + Pemetrexed; first compound 0.1 µM) | relative viability (Neratinib + Pemetrexed; first compound 1 µM) | relative viability (Neratinib + AZD7762; first compound 0.01 µM) | relative viability (Neratinib + AZD7762; first compound 0.03162 µM) | relative viability (Neratinib + AZD7762; first compound 0.1 µM) | relative viability (Neratinib + AZD7762; first compound 1 µM) | relative viability (Neratinib + OSI-027; first compound 0.01 µM) | relative viability (Neratinib + OSI-027; first compound 0.03162 µM) | relative viability (Neratinib + OSI-027; first compound 0.3162 µM) | relative viability (Neratinib + OSI-027; first compound 1 µM) | relative viability (Neratinib + Foretinib; first compound 0.01 µM) | relative viability (Neratinib + Foretinib; first compound 0.03162 µM) | relative viability (Neratinib + Foretinib; first compound 0.3162 µM) | relative viability (Neratinib + Foretinib; first compound 1 µM) | relative viability (Neratinib + Pemetrexed; first compound 0.3162 µM) | relative viability (Neratinib + AZD7762; first compound 0.3162 µM) | relative viability (Neratinib + OSI-027; first compound 0.1 µM) | relative viability (Neratinib + Foretinib; first compound 0.1 µM)
HARA | 0.317 | 0.276 | 0.196 | 0.238 | 0.563 | 0.293 | 0.263 | 0.261 | 0.533 | 0.527 | 0.225 | 0.129 | 0.973 | 0.91 | 0.496 | 0.375 | – | – | – | –
LXF-289 | 0.881 | 0.981 | 0.834 | 0.87 | 1.09 | 1.12 | 1.04 | – | 0.876 | 0.875 | 0.759 | 0.542 | 1 | 1 | 0.995 | 0.709 | 0.933 | 1.21 | 0.777 | 0.961
NCI-H1395 | 1.01 | 0.982 | 0.862 | 0.614 | 0.419 | 0.42 | 0.399 | 0.389 | – | 0.748 | 0.623 | 0.468 | 0.919 | 1.03 | 1.02 | 0.668 | 0.877 | 0.388 | 0.632 | –
NCI-H2170 | 0.275 | 0.261 | 0.237 | 0.196 | 0.816 | 0.549 | 0.515 | 0.159 | 0.761 | 0.771 | 0.22 | 0.239 | 1.04 | 1.07 | 0.303 | 0.27 | 0.203 | 0.177 | 0.287 | 0.909
